Consider 4 compounds from PMC7611903, “DYW domain structures imply an unusual regulation principle in plant organellar RNA editing catalysis” (Nature catalysis, 2021).

The structures appear in SMILES notation. Positions count from the first letter of the chain named.

In assay [1] the target is T1, OTP86^DYW (Arabidopsis thaliana, UniProt Q9M1V3).
T1 construct: gene PCMP-H83; isolated DYW domain, residues 826-960; N-terminal Strep-tag cut by TEV, GAM left; E. coli Rosetta2 (DE3); about 15 kDa, monomer
T1 sequence (Q9M1V3 826-960): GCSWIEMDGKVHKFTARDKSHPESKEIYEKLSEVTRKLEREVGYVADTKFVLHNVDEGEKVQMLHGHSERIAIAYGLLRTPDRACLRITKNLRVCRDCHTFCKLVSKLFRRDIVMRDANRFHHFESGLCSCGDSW
In words: differential scanning fluorimetry (SYPRO orange). The assay is classed as binding. Conditions: 20 mM Tris pH 7.5, 150 mM NaCl, destabilizing. On the technique in general: DSF heats the sample and reads unfolding from a dye or from intrinsic fluorescence.

Assay [2] deals with T2, OTP86^DYW (Arabidopsis thaliana, UniProt Q9M1V3, H892C).
T2 construct: gene PCMP-H83; isolated DYW domain, residues 826-960; N-terminal Strep-tag cut by TEV, GAM left; E. coli Rosetta2 (DE3); about 15 kDa, monomer
T2 sequence (Q9M1V3 826-960 H892C): T1 sequence (Q9M1V3 826-960) with H67C
The experiment in a line: differential scanning fluorimetry (SYPRO orange). The assay is classed as binding. Conditions: 20 mM Tris pH 7.5, 150 mM NaCl; destabilizing.

Assay [3] addresses T3, OTP86^DYW (Arabidopsis thaliana, UniProt Q9M1V3, L917A).
T3 construct: gene PCMP-H83; isolated DYW domain, residues 826-960; N-terminal Strep-tag cut by TEV, GAM left; E. coli Rosetta2 (DE3); about 15 kDa, monomer
T3 sequence (Q9M1V3 826-960 L917A): T1 sequence (Q9M1V3 826-960) with L92A
The experiment in a line: differential scanning fluorimetry (SYPRO orange). It is filed as binding. Conditions: 20 mM Tris pH 7.5, 150 mM NaCl; destabilizing.

For the next assay, the target named is T4, PPR56 (Physcomitrium patens, UniProt A0A2K1IWP1).
T4 construct: gene LOC112295756; recombinant from pETG41K::PPR56 (His-MBP fusion), amylose-purified from E. coli; tag kept; PPR tract, E1, E2 and DYW domain
In words: in vitro C-to-U RNA editing, RT-PCR sequencing. It is filed as biochemical. Conditions: nad4 RNA substrate, pH 7.5, 16 °C, activator.

For assay [4], the target named is T5, OTP86^DYW (Arabidopsis thaliana, UniProt Q9M1V3, K915A).
T5 construct: gene PCMP-H83; isolated DYW domain, residues 826-960; N-terminal Strep-tag cut by TEV, GAM left; E. coli Rosetta2 (DE3); about 15 kDa, monomer
T5 sequence (Q9M1V3 826-960 K915A): T1 sequence (Q9M1V3 826-960) with K90A
The experiment in a line: differential scanning fluorimetry (SYPRO orange). It is filed as binding. The settings on record: 20 mM Tris pH 7.5, 150 mM NaCl; destabilizing.

T4 sequence (A0A2K1IWP1 entry or part of it): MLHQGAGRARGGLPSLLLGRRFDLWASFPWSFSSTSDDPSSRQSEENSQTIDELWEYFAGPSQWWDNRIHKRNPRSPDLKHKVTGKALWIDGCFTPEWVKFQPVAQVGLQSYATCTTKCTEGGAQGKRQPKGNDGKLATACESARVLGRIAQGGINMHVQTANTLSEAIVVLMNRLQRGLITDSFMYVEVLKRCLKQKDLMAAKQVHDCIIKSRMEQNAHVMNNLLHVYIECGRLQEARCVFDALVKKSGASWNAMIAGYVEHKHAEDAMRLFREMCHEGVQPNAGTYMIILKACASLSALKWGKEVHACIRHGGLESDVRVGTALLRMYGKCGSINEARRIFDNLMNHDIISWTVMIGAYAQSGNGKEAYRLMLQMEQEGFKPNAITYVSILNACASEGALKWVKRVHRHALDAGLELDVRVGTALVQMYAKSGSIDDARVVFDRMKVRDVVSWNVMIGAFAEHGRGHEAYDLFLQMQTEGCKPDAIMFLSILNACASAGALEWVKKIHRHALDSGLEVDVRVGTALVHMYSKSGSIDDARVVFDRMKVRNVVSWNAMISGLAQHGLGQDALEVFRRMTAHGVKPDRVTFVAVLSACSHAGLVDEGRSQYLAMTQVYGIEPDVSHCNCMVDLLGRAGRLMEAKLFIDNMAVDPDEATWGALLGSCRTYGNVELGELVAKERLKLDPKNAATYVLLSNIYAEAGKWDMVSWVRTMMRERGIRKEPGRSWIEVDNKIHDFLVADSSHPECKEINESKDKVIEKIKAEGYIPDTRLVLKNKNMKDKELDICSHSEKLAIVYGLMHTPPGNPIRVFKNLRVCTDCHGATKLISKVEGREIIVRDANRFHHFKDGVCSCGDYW

Turning to `Nc1ncnc2c1ncn2[C@@H]1O[C@H](COP(=O)(O)OP(=O)(O)CP(=O)(O)O)[C@@H](O)[C@H]1O` [AMPPCP], the Tm at OTP86^DYW [1] (non-hydrolysable ATP analogue) worked out at 68 °C.
For `Nc1ncnc2c1ncn2[C@@H]1O[C@H](COP(=O)(O)OP(=O)(O)OP(=O)(O)O)[C@@H](O)[C@H]1O` [ATP], the Tm entry was “we assessed the T m of H892C in the presence of the activators” on OTP86^DYW [2]; “a milder effect with ATP comparable to wild type was observed” at OTP86^DYW [3]; 65 °C on OTP86^DYW [1] (2 mM ATP, reversible, activator). Moreover, at PPR56 (may be allosteric), the “in vitro C-to-U RNA editing, RT-PCR sequencing” value (shortened to “in vitro C-to-U RNA editing”) was “ATP activates PPR56 and PPR56^PPRE1E2–OTP86^DYW in a concentration-dependent fashion”.
With `Nc1nc2c(ncn2[C@@H]2O[C@H](COP(=O)(O)OP(=O)(O)OP(=O)(O)O)[C@@H](O)[C@H]2O)c(=O)[nH]1` [GTP], at PPR56, the “in vitro C-to-U RNA editing” value is listed as “GTP also activate both PPR proteins in a concentration-dependent manner”. Further, the Tm at OTP86^DYW [1] (2 mM GTP, reversible, activator) was 65.3 °C.
As to `O=C1NC(O)CCN1[C@@H]1O[C@H](CO)[C@@H](O)[C@H]1O` (stereo partly drawn) [tetrahydrouridine], the Tm entry on OTP86^DYW [2] was “The H892C mutant closely resembles the wild-type protein regarding activation, albeit less pronounced”; on OTP86^DYW [3] it was “The L917A mutation showed a prominent decrease in T m when THU was added”; at OTP86^DYW [4] it was “this effect is less severe with the K915A mutation”; on OTP86^DYW [1] (reversible, activator), 60 °C. Besides, the “in vitro C-to-U RNA editing” value at PPR56 is listed as “THU increases deaminase activity markedly for both proteins in a concentration-dependent manner”.
